For assay [1], the target named is T1, Neuronal acetylcholine receptor subunit alpha-7 (Homo sapiens, UniProt P36544). As to the kind of experiment: Agonist activity at human cloned wild-type alpha7 nAChR expressed in Xenopus laevis oocytes assessed as channel opening by voltage clamp electrophysiology. The class given is functional, cell-based, Oocyte.
A short description of assay [2]: Agonist activity at human cloned alpha7 nAChR Gln117Phe mutant expressed in Xenopus laevis oocytes assessed as channel opening by voltage clamp electrophysiology. The class given is functional, cell-based. As to conditions: Oocyte.
Assay [3] concerns the target T1, Neuronal acetylcholine receptor subunit alpha-7. As to the kind of experiment: Displacement of [125I]alpha-bungarotoxin from alpha7 nAChR. In general terms: Loss of bound radioactivity is the signal in a displacement assay; it reports binding, not function.

T1 sequence (P36544 whole entry): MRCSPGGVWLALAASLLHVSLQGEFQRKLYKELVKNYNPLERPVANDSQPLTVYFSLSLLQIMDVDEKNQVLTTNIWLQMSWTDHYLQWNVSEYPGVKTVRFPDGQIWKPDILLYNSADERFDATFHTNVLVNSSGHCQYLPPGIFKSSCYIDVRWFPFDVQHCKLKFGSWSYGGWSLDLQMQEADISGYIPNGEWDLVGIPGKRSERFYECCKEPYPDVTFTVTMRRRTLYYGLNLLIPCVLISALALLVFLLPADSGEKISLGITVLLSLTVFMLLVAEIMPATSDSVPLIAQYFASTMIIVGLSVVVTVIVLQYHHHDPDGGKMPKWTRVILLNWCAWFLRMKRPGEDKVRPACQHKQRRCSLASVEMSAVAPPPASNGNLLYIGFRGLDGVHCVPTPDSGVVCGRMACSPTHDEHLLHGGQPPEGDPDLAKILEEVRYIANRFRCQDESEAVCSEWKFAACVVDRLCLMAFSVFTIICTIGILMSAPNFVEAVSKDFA

A word on the EC50: it is the concentration at which the effect is half-maximal. One may read the Kd as the constant that tells how readily two partners part at equilibrium. For `O=C1NC[C@@]2(CN3CCC2CC3)O1`, the results for the 50% effective concentration (EC50) in assay [1] and in assay [2] were 3600 nM and 22300 nM, respectively. Moreover, in assay [3], the affinity, expressed as Kd, was 92 nM.

In assay [3], `CCN1C[C@@]2(CN3CCC2CC3)OC1=O` gave a Kd of 690 nM.

For `COc1ccc(/C=C2\CCCN=C2c2cccnc2)c(OC)c1` [GTS-21], the Kd in assay [3] is 158 nM.
